Patent publication US6291530A, “Aryl-substituted acrylamides with Leukotriene B4 (LTB-4) receptor antagonist activity” (Novartis AG, priority 1999, dated 2001)

Legend:
[1] = system: LTB-4-induced intracellular calcium rise in human neutrophils; assay: Inhibition of the LTB-4-induced intracellular calcium rise in human neutrophils; format: cell-based; conditions: Neutrophil, read-out: Concentration at which calcium rise is inhibited
Description: (§1) LTB-4 is purchased as a solution in either ethanol or DMSO (Biomol, Plymouth Meeting, Pa.) and diluted into Hank's balanced Salt Solution (HBSS) before use. For in vitro tests, test compounds are dissolved in DMSO to produce stock solution of 10 mM. Dilutions are made so that the final concentration of DMSO is 0.35%.
Inhibition of LTB-4 is determined by measuring the inhibition of the LTB-4-induced intracellular calcium rise in human neutrophils. Increases in intracellular Ca++ are measured as described by Seligmann et al., Agents and Actions, Vol. 21, p. 375 (1987). Neutrophils are purified from citrated human venous blood by sedimentation in HESPAN as described above. Neutrophils are isolated from the resulting pellet by centrifugal elutriation (Berkow et al., J. Lab. Clin. Med., Vol. 104, p. 698, 1984). Except were noted the neutrophils are incubated with acetoxymetbyl ester of Fura-2 (0.2 μM)(Molecular Probes Inc.) for 30 minutes at 37° C. in HEPES-buffered Hank's solution containing Ca++ and Mg++. The Fura-2 loaded cells are washed and stored on ice at a concentration of 2×10^6 cells/ml in 10 mM HEPES-buffered HBSS without Ca++ and Mg++. Fifteen minutes before assay, 1.5 ml of the cell suspension is mixed with 10 μl of 0.15 M Ca++ and 0.15 M Mg++ by stirring at 37° C. Compounds are added 40 seconds before the addition of 1 nM LTB-4. The change in fluorescence was followed using a DMX 1000 spectrofluorometer (SLM-Aminco Instruments, Urbana Ill.).

[2] = system: arachidonic acid-induced mouse ear inflammation; assay: Arachidonic acid-induced mouse ear inflammation model; format: in vivo
Description: The methodology used is essentially that described by Young et al., J. Invest. Dermatol. 82, 367-371 (1984). Female mice (A/J, Jakson Labs., Bar Harbor, Me.) weighing 20 gm are divided into groups consisting of six mice per treatment group. They are fasted overnight. Arachidonic acid (2 mg in 15 μl acetone) (Sigma, St Louis, Mo.) is applied to the inner surface of the right ear. The left ear received 15 μl of acetone. […] […] Edema is determined by subtracting the weight of the left ear punch from that of the right ear. As the marker for neutrophil infiltration, myeloperoxidase activity is measured as described by Bradley et al., J. Invest. Dermatol., Vol. 78, p. 206 (1982). The right ear punches from the both the vehicle and compound treated groups are used. The percentage of inhibition is calculated by comparing the myeloperoxidase activity of the compound treated groups with those of the vehicle treated group.

[3] = biological target: T1, LTB-4 receptor (Homo sapiens, UniProt Q15722); assay: LTB-4 receptor binding assay: binding of [H^3]-LTB-4 to intact human neutrophils; conditions: [H^3]-LTB-4, intact human neutrophils
T1 construct: to intact human neutrophils; endogenous in cells; host or cells: intact neutrophils prepared from human venous blood
T1 sequence (Q15722 whole entry): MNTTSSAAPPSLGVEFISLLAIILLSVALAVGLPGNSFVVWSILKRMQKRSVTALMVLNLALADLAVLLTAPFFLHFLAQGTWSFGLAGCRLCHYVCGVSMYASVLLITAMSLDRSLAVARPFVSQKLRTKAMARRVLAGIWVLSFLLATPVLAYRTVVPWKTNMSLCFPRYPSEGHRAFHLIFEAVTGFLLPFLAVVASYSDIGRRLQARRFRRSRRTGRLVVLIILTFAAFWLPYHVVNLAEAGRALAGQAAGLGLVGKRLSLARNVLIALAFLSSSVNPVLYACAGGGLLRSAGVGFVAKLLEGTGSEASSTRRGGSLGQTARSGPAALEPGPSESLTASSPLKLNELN
Description: LTB-4 receptor binding is dete mined in the following assay involving receptor binding of [H^3 ]-LTB-4 to intact human neutrophils.
as §1
Neutrophils are prepared from […] human venous blood. Blood (25 ml) is mixed with HESPAN (15 ml)(DuPont, Wilmington, Del.) and allowed to stand at room temperature for 40 minutes. The supernatant is removed and centrifuged for 10 minutes at 400×g. The resulting pellet is resuspended in phosphate-buffered saline without calcium and magnesium (GIBCO, Grand Islands N.Y.). Thirty-five ml of the resuspended cells is layered over 15 ml of Ficoll-Paque (Sigma, St Louis, Mo.) and then centrifuged for 15 minutes at 420×g. The resulting cell pllet is resuspended in 10 ml of phosphate-buffered saline without calcium and magnesium. Twenty-five ml of deionized water are added to the suspension for 20 seconds followed by the same volume of buffer at twice the normal concentration. The suspension is centrifuged for 5 minutes at 200×g,and the pellet resuspended in Hank's Balanced Salt Solution (HBSS).
Binding of [H^3 ]-LTB-4 to neutrophils is measured as described by Gorman and Lin, Methods Enzymol. 141: 372-378 (1987) and Jackson et al., J. Pharmacol.Exp. Ther., Vol. 262, p. 80 (1992). Intact human ntutrophils (3×106) are added to HBSS containing 0.5 nM [H^3 ]-LTB-4 (specific activity 32 Ci/mmol, DuPont-NEN, Boston, Mass.) and compound (final volume 0.5 ml). After incubating for 20 minutes at 0° C., the bound radioactivity is collected on Whatman GF/C filters by vacuum filtration using a Brandel harvester. The filters are washed twice with ice cold HBSS. Filters are counted using Formula-989 scintillation cocktail (DuPont-NEN, Boston, Mass.). Non-specific binding is determined in the presence of 300 nM LTB-4 (Biomol Res. Labs, Plymouth Meeting, Pa.).

[4] = 3 mg/Kg p.o., 1.5 hours post administration
[5] = 10 mg/Kg p.o., 18 hours post administration

Compound	IC50 [1] [µM]	Inhibition of edema [2, 4]	Inhibition of myeloperoxidase activity [2, 4]	Inhibition of edema [2, 5]	Inhibition of myeloperoxidase activity [2, 5]	IC50 [3] [µM]
CCN(CC)C(=O)/C=C(\C)c1ccc(OCc2c(F)cccc2F)c(OCC(=O)O)c1 [Example 2y, (E)-[5-(2-Diethylcarbamoyl-1-methylvinyl)-2-(2,6-difluorobenzyloxy)-phenoxy]-acetic acid]	~0.018	inhibit	inhibit	inhibit	inhibit	~0.048
CCN(CC)C(=O)/C=C(\C)c1ccc(OCc2c(F)cccc2F)c(CC(=O)O)c1 [Example 8a, (E)-[5-(2-diethylcarbamoyl-1-methyl-vinyl)-2-(2,6-difluorobenzyloxy)-phenyl]-acetic acid]	~0.022	inhibit	inhibit	inhibit	inhibit	~0.087
CCN(CC)C(=O)/C=C(\C)c1ccc(OC(C)c2ccccc2)c(CC(=O)O)c1 (stereo not drawn) [Example 8b, (E)-[5(2-diethylcarbamoyl-1-methylvinyl)-2-(1-phenyl-ethoxy)-phenyl]-acetic acid]	~0.008	inhibit	inhibit	inhibit	inhibit	~0.074
